The source of these data is PubChem BioAssay (NCI).

Among the test systems are HT29 colon; SF-268 CNS; NCI-H23 lung; HL-60(TB) leukemia; OVCAR-8 ovarian; CCRF-CEM leukemia; NCI-H226 lung; OVCAR-3 ovarian; OVCAR-4 ovarian; HOP-62 NSCLC.
What all share (assay): growth of human tumour cells (NCI), 48 h

SMILES strings stand for the structures. Values joined by “and” are separate entries in the source; they are usually repeats but may differ in a detail not shown here. Equal entries are not always repeated.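 Tested at 5 concentrations; 48 h exposure; 96-well plates; endpoints linearly interpolated, else capped at highest concentration. GI50 marks 50% less growth. TGI is the concentration that stops growth completely.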

As to `CC(C)CCN(CCC(C)C)CC(=O)Nc1ccc(S(=O)(=O)c2ccc(NC(=O)CN(CCC(C)C)CCC(C)C)cc2)cc1`, the GI50 with HT29 colon is 1.58 µM; in the assay with SF-268 CNS it was 1.51 µM; in the assay with NCI-H23 lung, 1.81 µM; in the assay on HL-60(TB) leukemia it was 2.22 µM; with OVCAR-8 ovarian, 2.89 µM; in the assay with CCRF-CEM leukemia, 1.06 µM. Further, the GI50 in the assay on NCI-H226 lung is 2.91 µM; with OVCAR-3 ovarian, 1.41 µM; in the assay on OVCAR-4 ovarian it was 2.56 µM. The TGI with HT29 colon was 3.29 µM; with SF-268 CNS, 4.68 µM; with NCI-H23 lung, 4.84 µM; with HL-60(TB) leukemia, 5.79 µM; with OVCAR-8 ovarian, above 100 µM; in the assay on CCRF-CEM leukemia, 3.87 µM. For the same molecule, the TGI in the assay on NCI-H226 lung came out at 11.5 µM; in the assay on OVCAR-3 ovarian, 3.03 µM; in the assay with OVCAR-4 ovarian it was 12.7 µM.
Turning to `C=C(CN(C)C)C(=O)c1ccccc1OC`, the TGI with HT29 colon was 46 µM; in the assay on SF-268 CNS, 63.7 µM; with NCI-H23 lung, 33.7 µM; in the assay on HL-60(TB) leukemia, above 35.8 µM; in the assay with OVCAR-8 ovarian, 50 µM; in the assay with CCRF-CEM leukemia, 14.5 µM. Besides, the TGI in the assay with HOP-62 NSCLC is above 100 µM; in the assay on NCI-H226 lung it was 62.7 µM; in the assay with OVCAR-3 ovarian, 32.9 µM; in the assay on OVCAR-4 ovarian it was 45.9 µM.
For `N#Cc1c(-c2ccc([N+](=O)[O-])cc2)c2c([nH]c1=O)-c1ccccc1CCC2`, the TGI with HT29 colon, with SF-268 CNS, in the assay on NCI-H23 lung, in the assay on HL-60(TB) leukemia, in the assay on OVCAR-8 ovarian and in the assay on HOP-62 NSCLC was above 100 µM throughout. Besides, the TGI was 96.2 µM in the assay on NCI-H226 lung, above 100 µM in the assay with OVCAR-3 ovarian and above 100 µM in the assay with OVCAR-4 ovarian.
Consider `O=C1OC(c2ccc(O)cc2)(c2ccc(O)cc2)c2ccc(Cl)c3cccc1c23` (tested in a mixture with another compound), for which the TGI turned out to be 23.9 µM in the assay with HT29 colon; 52.8 µM with SF-268 CNS; 31 µM in the assay with NCI-H23 lung; 38.9 µM in the assay on OVCAR-8 ovarian; 36.2 µM with CCRF-CEM leukemia; 16.2 µM in the assay with HOP-62 NSCLC. Moreover, the TGI with NCI-H226 lung is 34 µM; in the assay with OVCAR-3 ovarian, above 75 µM; with OVCAR-4 ovarian it was 0.325 µM.
Consider `CC(=O)OC(C(=O)O)C(OC(C)=O)C(OC(C)=O)C(OC(C)=O)C(=O)O` (stereo not given), for which the TGI with HT29 colon, in the assay on SF-268 CNS, in the assay on NCI-H23 lung, in the assay with HL-60(TB) leukemia, in the assay with OVCAR-8 ovarian and in the assay on CCRF-CEM leukemia was above 100 µM in each case. Moreover, the TGI with HOP-62 NSCLC, in the assay with NCI-H226 lung and with OVCAR-3 ovarian was above 100 µM throughout.
Consider `Cc1csc2nc(-c3cccc([N+](=O)[O-])c3)c(/C=N/N=C(N)N)n12`, for which the TGI with HT29 colon was 3.27 µM; with SF-268 CNS, 3.29 µM; with NCI-H23 lung, 3.49 µM; with HL-60(TB) leukemia, 2.26 µM; in the assay with OVCAR-8 ovarian, 3.2 µM; in the assay on OVCAR-3 ovarian, 4.24 µM. This molecule registered a TGI in the assay on OVCAR-4 ovarian of 3.19 µM.
As to `O=C(O)c1cc2ccccc2c(N=Nc2ccc(S(=O)(=O)Nc3ccccn3)cc2)c1O`, the TGI with HT29 colon, in the assay with SF-268 CNS, in the assay on HL-60(TB) leukemia, with OVCAR-8 ovarian, with CCRF-CEM leukemia and with HOP-62 NSCLC was above 100 µM in each case. The TGI in the assay on NCI-H226 lung, in the assay on OVCAR-3 ovarian and with OVCAR-4 ovarian was above 100 µM throughout.
Take `COc1ccccc1C#C/C=C\C#Cc1ccccc1C#N`: the TGI with HT29 colon is above 100 µM; with SF-268 CNS, above 100 µM; in the assay with NCI-H23 lung, 25 µM; in the assay with HL-60(TB) leukemia it was above 100 µM; in the assay on OVCAR-8 ovarian it was 34.4 µM; in the assay with CCRF-CEM leukemia, above 100 µM. The TGI in the assay on HOP-62 NSCLC was 62.5 µM; with OVCAR-3 ovarian, 24.5 µM; in the assay on OVCAR-4 ovarian, above 100 µM.
Turning to `COC(=O)c1c(O)ccc2c1c1c(n2CCc2ccc(OC)c(OC)c2)C(=O)c2ccccc2C1=O`, the TGI was determined as 10.5 µM in the assay on HT29 colon; 41 µM in the assay on SF-268 CNS; 31.5 µM in the assay on NCI-H23 lung; 59 µM with HL-60(TB) leukemia; 32.6 µM in the assay with OVCAR-8 ovarian; 45.2 µM with CCRF-CEM leukemia. The TGI turned out to be 32.9 µM with HOP-62 NSCLC, 50.3 µM in the assay with NCI-H226 lung, 40.6 µM in the assay on OVCAR-3 ovarian and 35.6 µM in the assay with OVCAR-4 ovarian.
Take `Cc1ncc(C(=O)Nc2ccc(CN3CCN(C)CC3)c(C(F)(F)F)c2)cc1C#Cc1cnc(N)c2ccc(C#N)cc12`: the GI50 in the assay on SF-268 CNS is 0.0399 µM; in the assay on NCI-H23 lung it was 0.0959 µM; with HL-60(TB) leukemia it was 0.4 µM; with NCI-H226 lung, 0.0345 µM; with OVCAR-3 ovarian, 0.0949 µM. Further, the TGI is above 100 µM in the assay with SF-268 CNS; 3.28 µM with NCI-H23 lung; above 100 µM in the assay on HL-60(TB) leukemia; 0.593 µM in the assay on NCI-H226 lung; 8.09 µM in the assay on OVCAR-3 ovarian.
As to `Brc1ccc(-c2[nH]c3ccccc3c2/C=N\Nc2ccc(-c3nc4ccccc4[nH]3)cc2)cc1`, the TGI is 6.28 µM with SF-268 CNS; above 46.6 µM in the assay with NCI-H23 lung; above 100 µM with HL-60(TB) leukemia; above 58.5 µM in the assay with OVCAR-8 ovarian; above 68.6 µM in the assay on CCRF-CEM leukemia; above 68.5 µM in the assay on HOP-62 NSCLC. In addition, the TGI in the assay with OVCAR-3 ovarian and with OVCAR-4 ovarian was above 100 µM each time.
With `CC[C@@]1(O)CC(OC2CC(N3CCOCC3)C(O)C(C)O2)c2c(O)c3c(c(O)c2[C@H]1O)C(=O)c1cccc(O)c1C3=O` (stereo not given in full), the GI50 is 0.0228 µM in the assay on HT29 colon; 0.091 µM in the assay on SF-268 CNS; 0.101 µM in the assay with NCI-H23 lung; 0.000481 µM and < 0.0113 µM in the assay with HL-60(TB) leukemia; 0.0285 µM in the assay with OVCAR-8 ovarian; 0.000479 µM and < 0.0102 µM in the assay with CCRF-CEM leukemia. Also, the GI50 in the assay with NCI-H226 lung was 0.0184 µM; with OVCAR-3 ovarian, 0.176 µM; in the assay with OVCAR-4 ovarian it was 0.199 µM. In addition, the TGI in the assay on HT29 colon is 3.23 µM and 2.33 µM; in the assay with SF-268 CNS, 3.27 µM and 2.1 µM; in the assay with NCI-H23 lung it was 1.95 µM and 1.09 µM; in the assay on HL-60(TB) leukemia, 0.431 µM and 0.36 µM; in the assay on OVCAR-8 ovarian, 1.07 µM and 5.5 µM; in the assay with HOP-62 NSCLC it was 0.597 µM and 0.427 µM. For the same molecule, the TGI was 0.597 µM and 0.102 µM with NCI-H226 lung; 2.73 µM and 1.63 µM in the assay with OVCAR-3 ovarian; 1.55 µM and 2.88 µM in the assay on OVCAR-4 ovarian.
For `O=S(=O)(c1ccccc1)C1CC(c2nc3ccccc3[nH]2)=NO1` (stereo not given), the TGI was above 100 µM with HT29 colon; above 100 µM in the assay on SF-268 CNS; above 100 µM with NCI-H23 lung; above 100 µM in the assay with OVCAR-8 ovarian; 82.6 µM with CCRF-CEM leukemia; above 100 µM in the assay with HOP-62 NSCLC. Moreover, the TGI in the assay with NCI-H226 lung, in the assay on OVCAR-3 ovarian and in the assay on OVCAR-4 ovarian was above 100 µM in each case.
On to `Cc1[nH]c(C(=O)Nc2ccc(C(=O)NCCN)cc2OC(C)C)c(Cl)c1Cl`, for which the GI50 was 2.23 µM with OVCAR-8 ovarian, 2.13 µM with CCRF-CEM leukemia and 1.95 µM in the assay on HOP-62 NSCLC. The TGI in the assay with OVCAR-8 ovarian came to 5.43 µM; with CCRF-CEM leukemia, 5.17 µM; in the assay with HOP-62 NSCLC, 4.53 µM.
`O=C(CSCC(=O)N/N=C\c1ccc(F)cc1F)N/N=C\c1ccc(F)cc1F`: the TGI in the assay on HT29 colon, with SF-268 CNS, in the assay with NCI-H23 lung, in the assay on HL-60(TB) leukemia, in the assay on OVCAR-8 ovarian and in the assay with CCRF-CEM leukemia was above 100 µM each time. In addition, the TGI in the assay with HOP-62 NSCLC, with NCI-H226 lung, in the assay with OVCAR-3 ovarian and in the assay with OVCAR-4 ovarian was above 100 µM in each case.
`c1ccc(CSC(SCc2ccccc2)c2cccc3ccccc23)cc1`: the TGI with HT29 colon, in the assay with SF-268 CNS, in the assay with NCI-H23 lung, with HL-60(TB) leukemia, in the assay on OVCAR-8 ovarian and with CCRF-CEM leukemia was above 10 µM each time. Further, the TGI in the assay on HOP-62 NSCLC, in the assay on NCI-H226 lung and in the assay with OVCAR-4 ovarian was above 10 µM throughout.
Consider `C[n+]1c2ccccc2c(N=[N+]=[N-])c2ccccc21`, for which the TGI with HT29 colon, in the assay with SF-268 CNS, with NCI-H23 lung, with HL-60(TB) leukemia, with OVCAR-8 ovarian and in the assay on CCRF-CEM leukemia was above 10 µM each time. The TGI with HOP-62 NSCLC, in the assay with NCI-H226 lung, in the assay with OVCAR-3 ovarian and in the assay on OVCAR-4 ovarian was above 10 µM in each case.
As to `C[N+]1(C(CO)Cc2c[nH]c3ccccc23)Cc2ccccc2C1` (stereo not given), the TGI in the assay with HT29 colon, in the assay with SF-268 CNS, with NCI-H23 lung, in the assay with HL-60(TB) leukemia, in the assay on OVCAR-8 ovarian and in the assay on CCRF-CEM leukemia was above 100 µM in each case. Moreover, the TGI in the assay on HOP-62 NSCLC, with NCI-H226 lung, with OVCAR-3 ovarian and in the assay with OVCAR-4 ovarian was above 100 µM each time.
